Measurements taken from patent publication US8834841B2, “Imaging agents” (priority 2005, dated 2014).

What was measured:
[1] = tested on: A549 Lung Tumor Cells Implanted SC in SCID Mice; assay: tissue distribution, A549 tumor-bearing SCID mice; format: in vivo
Description: For the in vitro amino acid uptake studies, all cells can be grown to monolayer confluency in T-175 culture flasks [Corning, Corning, N.Y.] (approx. 1×10^8 cells/flask) in Dulbecco's Modified Eagle's Medium (DMEM) [Sigma, St. Louis, Mo.] in a humidified incubator (37° C., 5% CO2/95% air). Media are supplemented with 10% fetal calf serum [Hyclone, Logan, Utah], and antibiotics (10,000 U/ml penicillin and 10 mg/ml streptomycin) (Sigma, St. Louis, Mo.). For tissue culture passage, monolayer cells are detached by gentle trypsinization, resuspended in complete media, and split 1:10 into new T-flasks. Cultures are passaged weekly, and fed fresh media every 2 to 3 days. To initiate tumor growth in SCID mice, 1×10^6 cells are injected s.c. bilaterally into the flanks (inguinal region) of the recipient animals using a 1 ml syringe with a 27 gauge needle. Ex vivo experiments can be performed with animals containing tumors weighing between 500 mg and 1 g, as estimated by caliper measurement (tumor weight=(π/6)*abc, where a, b and c are the tumor length, width and height, respectively). The compounds of the invention are further evaluated for their tumor specificity and selectivity in tumor-bearing animal models. One can evaluate and compare the transport, accumulation and tissue distribution of each compound in these in vivo animal studies. Tissue distribution of the compounds is measured in SCID mice (average weight, 20-25 g) bearing human tumors as follows. The candidate radioligands (20 uCi in 0.4 ml 0.9% NaCl) are injected into the tail vein of tumor-bearing mice. […] Tissues (blood, heart, liver, lungs, kidneys, bone, thyroid, muscle, brain and tumor) are excised, rinsed in saline, and blotted dry. The tissues are weighed, placed into 12×75 mm glass vials, the radioactivity determined with a gamma counter, and the percent dose/gram calculated. Total activities of blood and muscle are calculated by assuming that they account for 7% and 40% of the total body mass, respectively.

[2] = tested on: A549 (lung), DU145 (prostate), SKOV3 (ovary), and MDA MB468 (breast) tumor-bearing SCID mice; assay: in vivo biodistribution studies, summary over tumor models; details: injected intravenously
Description: For the in vitro amino acid uptake studies, all cells can be grown to monolayer confluency in T-175 culture flasks [Corning, Corning, N.Y.] (approx. 1×10^8 cells/flask) in Dulbecco's Modified Eagle's Medium (DMEM) [Sigma, St. Louis, Mo.] in a humidified incubator (37° C., 5% CO2/95% air). Media are supplemented with 10% fetal calf serum [Hyclone, Logan, Utah], and antibiotics (10,000 U/ml penicillin and 10 mg/ml streptomycin) (Sigma, St. Louis, Mo.). For tissue culture passage, monolayer cells are detached by gentle trypsinization, resuspended in complete media, and split 1:10 into new T-flasks. Cultures are passaged weekly, and fed fresh media every 2 to 3 days. To initiate tumor growth in SCID mice, 1×10^6 cells are injected s.c. bilaterally into the flanks (inguinal region) of the recipient animals using a 1 ml syringe with a 27 gauge needle. Ex vivo experiments can be performed with animals containing tumors weighing between 500 mg and 1 g, as estimated by caliper measurement (tumor weight=(π/6)*abc, where a, b and c are the tumor length, width and height, respectively). The compounds of the invention are further evaluated for their tumor specificity and selectivity in tumor-bearing animal models. One can evaluate and compare the transport, accumulation and tissue distribution of each compound in these in vivo animal studies. Tissue distribution of the compounds is measured in SCID mice (average weight, 20-25 g) bearing human tumors as follows. The candidate radioligands (20 uCi in 0.4 ml 0.9% NaCl) are injected into the tail vein of tumor-bearing mice. The animals are sacrificed (cervical dislocation) at 5, 30, 60 and 120 minutes post-injection. Tissues (blood, heart, liver, lungs, kidneys, bone, thyroid, muscle, brain and tumor) are excised, rinsed in saline, and blotted dry. The tissues are weighed, placed into 12×75 mm glass vials, the radioactivity determined with a gamma counter, and the percent dose/gram calculated. Total activities of blood and muscle are calculated by assuming that they account for 7% and 40% of the total body mass, respectively. As exemplified above, the amino acid compounds of the invention have advantageous physiological characteristics (i.e., tumor binding specificity and selectivity, in vivo stability etc).

[3] = 120 min p.i., range over tumor models

% Dose/g blood ([1]; 15 Minutes): 3.39 % Dose/g | % Dose/g bone ([1]; 15 Minutes): 2.06 % Dose/g | % Dose/g brain ([1]; 15 Minutes): 0.26 % Dose/g | % Dose/g heart ([1]; 15 Minutes): 2.70 % Dose/g | % Dose/g kidney ([1]; 15 Minutes): 10.11 % Dose/g | % Dose/g liver ([1]; 15 Minutes): 3.15 % Dose/g | % Dose/g lung ([1]; 15 Minutes): 4.23 % Dose/g | % Dose/g muscle ([1]; 15 Minutes): 1.38 % Dose/g | % Dose/g pancreas ([1]; 15 Minutes): 48.45 % Dose/g | % Dose/g spleen ([1]; 15 Minutes): 7.90 % Dose/g | % Dose/g tumor ([1]; 15 Minutes): 5.11 % Dose/g | % Dose/g blood ([1]; 30 Minutes): 2.42 % Dose/g | % Dose/g bone ([1]; 30 Minutes): 1.63 % Dose/g | % Dose/g brain ([1]; 30 Minutes): 0.25 % Dose/g | % Dose/g heart ([1]; 30 Minutes): 2.23 % Dose/g | % Dose/g kidney ([1]; 30 Minutes): 5.47 % Dose/g | % Dose/g liver ([1]; 30 Minutes): 2.70 % Dose/g | % Dose/g lung ([1]; 30 Minutes): 3.03 % Dose/g | % Dose/g muscle ([1]; 30 Minutes): 1.43 % Dose/g | % Dose/g pancreas ([1]; 30 Minutes): 44.17 % Dose/g | % Dose/g spleen ([1]; 30 Minutes): 5.02 % Dose/g | % Dose/g tumor ([1]; 30 Minutes): 4.28 % Dose/g | % Dose/g blood ([1]; 60 Minutes): 1.08 % Dose/g | % Dose/g bone ([1]; 60 Minutes): 1.01 % Dose/g | % Dose/g brain ([1]; 60 Minutes): 0.16 % Dose/g | % Dose/g heart ([1]; 60 Minutes): 1.41 % Dose/g | % Dose/g kidney ([1]; 60 Minutes): 2.24 % Dose/g | % Dose/g liver ([1]; 60 Minutes): 1.46 % Dose/g | % Dose/g lung ([1]; 60 Minutes): 1.40 % Dose/g | % Dose/g muscle ([1]; 60 Minutes): 0.90 % Dose/g | % Dose/g pancreas ([1]; 60 Minutes): 20.63 % Dose/g | % Dose/g spleen ([1]; 60 Minutes): 2.85 % Dose/g | % Dose/g tumor ([1]; 60 Minutes): 3.04 % Dose/g | % Dose/g blood ([1]; 120 Minutes): 0.40 % Dose/g | % Dose/g bone ([1]; 120 Minutes): 0.62 % Dose/g | % Dose/g brain ([1]; 120 Minutes): 0.14 % Dose/g | % Dose/g heart ([1]; 120 Minutes): 0.85 % Dose/g | % Dose/g kidney ([1]; 120 Minutes): 1.02 % Dose/g | % Dose/g liver ([1]; 120 Minutes): 0.58 % Dose/g | % Dose/g lung ([1]; 120 Minutes): 0.56 % Dose/g | % Dose/g muscle ([1]; 120 Minutes): 0.77 % Dose/g | % Dose/g pancreas ([1]; 120 Minutes): 9.80 % Dose/g | % Dose/g spleen ([1]; 120 Minutes): 1.48 % Dose/g | % Dose/g tumor ([1]; 120 Minutes): 2.30 % Dose/g | tumor uptake [2, 3]: 1.4-3.4 % dose/g | tumor-to brain ratio [2, 3]: 15-30 | tumor-to kidney ratio [2, 3]: 1.5-2.7 | tumor-to liver ratio [2, 3]: 2.4-4 | tumor-to muscle ratio [2, 3]: 2-4
SMILES: NC1(C(=O)O)CCC1[18F] [Anti-R,S 2-[^18F]FACBC, (R,S) anti-1-amino-2-[^18F]fluorocyclobutyl-1-carboxylic acid]
accumulation of radioactivity in tumors [2]: rapid and prolonged accumulation of radioactivity in tumors
